Reference: patent publication US20020013362A1 (priority 2000, published 2002)

Columns and labels:
[1] = tested on: metastatic melanoma; experiment: Phase II M D Anderson trial of paclitaxel Q4Dx3 every 21 days, tumor responses; type: in vivo, human
Description: Cytokines and therapeutic agents which may be used include, for example, platinum compounds (e.g., spiroplatin, cisplatin, and carboplatin), thalidomide, methotrexate, adriamycin, mitomycin, ansamitocin, bleomycin, cytosine arabinoside, arabinosyl adenine, mercaptopolylysine, vincristine, busulfan, chlorambucil, melphalan (e.g., PAM, L-PAM or phenylalanine mustard), mercaptopurine, mitotane, carmustine, procarbazine hydrochloride dactinomycin (actinomycin D), daunorubicin hydrochloride, doxorubicin hydrochloride, taxol, mitomycin, plicamycin (mithramycin), aminoglutethimide, estramustine phosphate sodium, flutamide, leuprolide acetate, megestrol acetate, tamoxifen citrate, testolactone, trilostane, amsacrine (m-AMSA), asparaginase (L-asparaginase) Erwina asparaginase, etoposide (VP-16), interferon α-2a, interferon α-2b, teniposide (VM-26), vinblastine sulfate (VLB), vincristine sulfate, bleomycin, bleomycin sulfate, methotrexate, adriamycin, and arabinosyl; biological response modifiers such as muramyldipeptide, muramyltripeptide, microbial cell wall components, lymphokines (e.g., bacterial endotoxin such as lipopolysaccharide, macrophage activation factor), sub-units of bacteria (such as Mycobacteria, Corynebacteria), the synthetic dipeptide N-acetyl-muramyl-L-alanyl-D-isoglutamine; hormones such as growth hormone, melanocyte stimulating hormone, estradiol, beclomethasone dipropionate, betamethasone, betamethasone acetate and betamethasone sodium phosphate, vetamethasone disodium phosphate, vetamethasone sodium phosphate, cortisone acetate, dexamethasone, dexamethasone acetate, dexamethasone sodium phosphate, flunisolide, hydrocortisone, hydrocortisone acetate, hydrocortisone cypionate, hydrocortisone sodium phosphate, hydrocortisone sodium succinate, methylprednisolone, methylprednisolone acetate, methylprednisolone sodium succinate, paramethasone acetate, prednisolone, prednisolone acetate, prednisolone sodium phosphate, prednisolone tebutate, prednisone, triamcinolone, triamcinolone acetonide, triamcinolone diacetate, triamcinolone hexacetonide and fludrocortisone acetate; immunoadjuvants and cytokines may also be employed, including interleukins (e.g., IL-1, IL-2, IL-3, IL-6), leukemia inhibitory factor, interferons, such as INF-α, TGF-beta, erythropoietin, TNF, lymphotoxin, and thrombopoietin; thalidomide and/or other agents to inhibit the production and/or action of cytokine/growth factors such as M-α, IGF-1, EGF, TGF α, IL-1β, MGSA and bFGF in different cell types involved in tumor growth and/or angiogenesis of melanoma.

[2] = tested on: adult leukemia, solid tumors, and pediatric solid tumor patients; experiment: Earlier published trials of the Q4D paclitaxel schedule; type: in vivo, human; settings: one patient with a recurrent large metastatic melanoma
Description: An added benefit to this regimen includes a reduction in myelosupression. To this end, we devised the Q4 day (Q4D)×3 every 21-day treatment schedule which has the added value of increasing the dose intensity during each 21-day treatment period beyond that of the once every 21-day schedule (Ainsworth S. K., and Helson, L., U.S. Pat. No. 5,696,153 issued Dec. 9, 1997). […] During these trials an anecdotal twelve-month partial response in a patient with a recurrent large metastatic melanoma was observed. […]

[3] = tested on: patients with melanoma
[4] = tested on: patients with melanoma; settings: cited from earlier work
[5] = 17 patients, 90 mg/M^2 Q4 days x3

CC(=O)O[C@H]1C(=O)[C@@]2(C)[C@H]([C@H](OC(=O)c3ccccc3)[C@]3(O)C[C@H](OC(=O)[C@H](O)[C@@H](NC(=O)c4ccccc4)c4ccccc4)C(C)=C1C3(C)C)[C@]1(OC(C)=O)CO[C@@H]1C[C@@H]2O [paclitaxel]
tumor volume decrease ([1]; Patient #1, after another two courses (four in all)): 83% | decrease in liver metastases volume ([1]; Patient #1, after two courses at 270 mg/M^2/course): 41% | decrease in lung metastases ([1]; Patient #2, 270 mg/M^2/course): 43% | tumor control maintained, number of courses ([1]; Patient #2, 270 mg/M^2/course): eight | decrease in tumor volume ([1]; Patient #3, scapular primary, after 4 courses at 270 mg/M^2/course): 39% | decrease in tumor volume ([1]; Patient #4, right calf primary, after 4 courses at 270 mg/M^2/course): 15% | decrease in tumor volume ([1]; Patient #5, right heel mass, after 2 courses at 270 Mg/M^2/course): 12% | clinical response ([1]; Patient #6, during 4 courses at 270 mg/M^2/course): stable disease | clinical response ([1]; Patient #7, ciliochoroidal primary, no previous chemotherapy, after 3 courses at 270 mg/M^2/course): stable disease | clinical response ([1]; Patient #8, tumor of dorsum of right foot, previously treated, during two courses at 270 mg/M^2/course): stable disease | clinical response ([1]; Patient #9, non-choroidal melanoma, no prior chemotherapy, during 6 courses at 270 mg/M^2/course): stable disease | objective responses, tumor reduction ([1]; interim analysis, first 21 patients, 90 mg/M^2/dose Q4D, advanced heavily pretreated melanoma): greater than 50% | reductions in hepatic tumor masses ([1]; interim analysis, sustained over one month, additional two patients of first 21, 90 mg/M^2/dose Q4D): 25-40% | duration of anecdotal partial response [2]: twelve | associated toxicity versus 200 mg/M^2 Q 21-day schedule ([3]; 270 mg/M^2 per 21 days, Q4D schedule): significantly less | Grade 3 abdominal pain (sufficient to interfere with function) [3, 5]: 3 patients | Grade 3 anemia (between 6.5-7.9 grams/100 ml blood) [3, 5]: 2 patients | Grade 3 diarrhea (over 7-9 stools/day) [3, 5]: 2 patients | Grade 3 edema (>20% weight gain) [3, 5]: 1 patient | Grade 3 fatigue (objective weakness with impairment of function) [3, 5]: 4 patients | Grade 3 granulocytopenia (between 0.5-0.9x10^3/mm^3) [3, 5]: 6 patients | Grade 3 increased alkaline phosphatase levels (between 5.1-20xN) [3, 5]: 2 patients | Grade 3 toxicity, number of patients [3, 5]: 11 patients | Grade 3 toxicity, number of times [3, 5]: 21 times | Grade 4 BUN increase (greater than 10 times normal values) [3, 5]: 1 patient | Grade 4 granulocytopenia (less than 0.5x10^3/mm^3) [3, 5]: 4 patients | Grade 4 leukopenia (less than 1.0x10^3/mm^3) [3, 5]: 2 patients | Grade 4 toxicity, number of patients [3, 5]: 3 patients | major side effect ([3]; Patient #2, eight courses at 270 mg/M^2/course): paresthesia | partial responses in patients with melanoma ([4]; 24-hour infusion, 250 mg/M^2 once every three weeks (Legha 1990)): 3/25 | paclitaxel dose a majority of the melanoma patients could tolerate ([4]; Legha 1990): ≤ 200 mg/M^2 | objective responses ([4]; phase II, same schedule (24-hour infusion 250 mg/M^2 q3 weeks), 28 patients (Einzig 1988)): five | maximum tolerated dose intensity under previous regimens ([4]; three 175 mg/M^2 doses given every 21 days (63-day period)): 525 mg/M^2
